Measurements reported in ChEMBL document CHEMBL4765318 (Eur J Med Chem, 2020).
Active and inactive are the calls of the source. No cut-off for these calls is given here.

Tests used:
[1] = molecular target: T1, Tyrosine-protein kinase BTK (Homo sapiens, UniProt Q06187); conditions: dose 100.0 nM
Description: Inhibition of BTK (unknown origin) at 100 nM by ADP-Glo assay relative to control

[2] = tested on: Ramos; assay: Antiproliferative activity against human Ramos cells assessed as reduction in cell viability incubated for 24 hrs by CCK-8 assay; type: functional, cell-based
[3] = tested on: Raji; assay: Antiproliferative activity against human Raji cells assessed as reduction in cell viability incubated for 24 hrs by CCK-8 assay; type: functional, cell-based
[4] = molecular target: T1, Tyrosine-protein kinase BTK; assay: Inhibition of BTK (unknown origin) by ADP-Glo assay
[5] = molecular target: T1, Tyrosine-protein kinase BTK; assay: Inhibition of BTK in human Ramos cells assessed as reduction in BTK phosphorylation at Tyr223 residue at 10 uM incubated for 24 hrs by Western blot analysis; type: cell-based
[6] = tested on: Ramos; assay: Induction of apoptosis in human Ramos cells assessed as necrotic cells at 5 uM incubated for 24 hrs by annexin V-FITC and PI staining based flow cytometry analysis (reference value: 2.1 %); type: functional
[7] = molecular target: Tyrosine-protein kinase Blk (Homo sapiens, UniProt P51451); assay: Inhibition of BLK (unknown origin) by ADP-Glo assay
Sequence of Tyrosine-protein kinase Blk (P51451 whole entry): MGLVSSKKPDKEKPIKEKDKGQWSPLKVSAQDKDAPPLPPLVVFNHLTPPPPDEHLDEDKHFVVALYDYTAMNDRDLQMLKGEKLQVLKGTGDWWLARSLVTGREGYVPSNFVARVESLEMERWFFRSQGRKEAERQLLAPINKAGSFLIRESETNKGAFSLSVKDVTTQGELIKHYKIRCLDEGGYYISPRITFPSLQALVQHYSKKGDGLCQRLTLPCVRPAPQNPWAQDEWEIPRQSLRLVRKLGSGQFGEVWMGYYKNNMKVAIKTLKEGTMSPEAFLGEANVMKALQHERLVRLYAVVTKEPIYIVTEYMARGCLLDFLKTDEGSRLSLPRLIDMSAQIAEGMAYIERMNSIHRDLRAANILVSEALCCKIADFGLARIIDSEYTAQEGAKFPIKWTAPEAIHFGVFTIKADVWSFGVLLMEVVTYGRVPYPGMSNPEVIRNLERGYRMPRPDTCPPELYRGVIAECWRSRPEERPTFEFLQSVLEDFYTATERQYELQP

[8] = tested on: Ramos; assay: Induction of apoptosis in human Ramos cells assessed as early apoptotic cells at 5 uM incubated for 24 hrs by annexin V-FITC and PI staining based flow cytometry analysis (reference value: 1.9 %); type: functional
[9] = molecular target: T1, Tyrosine-protein kinase BTK; assay: Inhibition of BTK in human Ramos cells assessed as reduction in BTK phosphorylation at Tyr223 residue at 10 uM incubated for 4 hrs followed by compound wash-out and measured upto 24 hrs by Western blot analysis; type: cell-based
[10] = molecular target: T1, Tyrosine-protein kinase BTK; assay: Inhibition of BTK in human Ramos cells assessed as reduction in PLCgamma2 phosphorylation at Tyr557 residue at 3 uM incubated for 24 hrs by Western blot analysis; type: cell-based
[11] = tested on: Ramos; assay: Induction of cell cycle arrest in human Ramos cells assessed as G2/M phase accumulation at 5 uM incubated for 24 hrs by PI staining based flow cytometry analysis (reference value: 20.96 %); type: functional
[12] = tested on: Ramos; assay: Induction of apoptosis in human Ramos cells assessed as late apoptotic cells at 5 uM incubated for 24 hrs by annexin V-FITC and PI staining based flow cytometry analysis (reference value: 2.2 %); type: functional
[13] = tested on: Ramos; assay: Induction of apoptosis in human Ramos cells assessed as viable cells at 5 uM incubated for 24 hrs by annexin V-FITC and PI staining based flow cytometry analysis (reference value: 93.8 %); type: functional
[14] = molecular target: Epidermal growth factor receptor (Homo sapiens, UniProt P00533); assay: Inhibition of EGFR (unknown origin) by ADP-Glo assay
Sequence of Epidermal growth factor receptor (P00533 whole entry): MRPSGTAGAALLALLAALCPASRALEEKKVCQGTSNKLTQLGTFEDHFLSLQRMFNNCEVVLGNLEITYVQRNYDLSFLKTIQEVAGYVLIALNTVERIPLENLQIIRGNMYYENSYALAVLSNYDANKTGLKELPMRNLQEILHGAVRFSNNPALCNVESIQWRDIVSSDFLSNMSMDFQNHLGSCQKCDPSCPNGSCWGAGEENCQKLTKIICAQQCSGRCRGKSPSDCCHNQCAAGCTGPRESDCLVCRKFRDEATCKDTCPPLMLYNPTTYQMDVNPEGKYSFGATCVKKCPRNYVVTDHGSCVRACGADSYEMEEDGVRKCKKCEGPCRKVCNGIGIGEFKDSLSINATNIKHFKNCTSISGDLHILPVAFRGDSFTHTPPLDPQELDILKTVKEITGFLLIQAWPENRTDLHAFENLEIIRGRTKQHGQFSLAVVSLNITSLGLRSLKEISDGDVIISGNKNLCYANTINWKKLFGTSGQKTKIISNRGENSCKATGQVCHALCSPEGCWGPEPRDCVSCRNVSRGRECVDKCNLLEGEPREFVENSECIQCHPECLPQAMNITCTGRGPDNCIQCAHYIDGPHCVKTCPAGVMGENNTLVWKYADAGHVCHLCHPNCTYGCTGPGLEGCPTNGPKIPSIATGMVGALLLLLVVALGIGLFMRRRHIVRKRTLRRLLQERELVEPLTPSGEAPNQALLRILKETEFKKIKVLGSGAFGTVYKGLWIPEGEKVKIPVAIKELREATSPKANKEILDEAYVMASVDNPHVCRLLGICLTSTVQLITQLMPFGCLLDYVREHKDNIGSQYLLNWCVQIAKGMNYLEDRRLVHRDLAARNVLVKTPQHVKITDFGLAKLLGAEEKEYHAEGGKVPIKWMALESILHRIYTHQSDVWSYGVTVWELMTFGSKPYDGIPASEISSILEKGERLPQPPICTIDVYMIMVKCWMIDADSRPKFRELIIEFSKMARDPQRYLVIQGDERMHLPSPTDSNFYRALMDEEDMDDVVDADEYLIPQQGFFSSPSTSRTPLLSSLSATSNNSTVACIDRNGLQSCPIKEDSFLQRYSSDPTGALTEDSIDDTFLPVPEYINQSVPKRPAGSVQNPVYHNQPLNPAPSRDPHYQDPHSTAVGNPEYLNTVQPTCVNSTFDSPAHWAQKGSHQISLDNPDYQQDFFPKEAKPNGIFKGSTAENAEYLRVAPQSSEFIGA

[15] = molecular target: T2, Tyrosine-protein kinase ITK/TSK (Homo sapiens, UniProt Q08881); assay: Inhibition of ITK (unknown origin) by ADP-Glo assay
T2 sequence (Q08881 whole entry): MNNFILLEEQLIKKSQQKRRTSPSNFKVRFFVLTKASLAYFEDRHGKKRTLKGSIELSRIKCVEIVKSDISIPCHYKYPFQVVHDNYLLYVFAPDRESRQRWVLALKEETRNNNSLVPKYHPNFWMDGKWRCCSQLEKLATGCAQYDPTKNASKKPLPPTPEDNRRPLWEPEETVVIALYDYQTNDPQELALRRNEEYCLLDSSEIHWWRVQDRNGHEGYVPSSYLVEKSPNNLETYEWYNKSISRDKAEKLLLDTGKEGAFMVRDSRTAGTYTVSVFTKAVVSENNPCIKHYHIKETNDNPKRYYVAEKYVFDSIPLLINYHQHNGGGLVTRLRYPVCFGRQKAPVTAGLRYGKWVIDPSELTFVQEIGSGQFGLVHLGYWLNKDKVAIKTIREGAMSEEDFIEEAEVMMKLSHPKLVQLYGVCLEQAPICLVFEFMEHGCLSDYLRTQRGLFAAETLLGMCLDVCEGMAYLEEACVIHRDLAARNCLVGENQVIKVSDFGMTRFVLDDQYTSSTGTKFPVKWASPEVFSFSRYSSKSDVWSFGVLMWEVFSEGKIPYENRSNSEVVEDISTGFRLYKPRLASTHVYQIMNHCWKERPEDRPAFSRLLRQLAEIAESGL

[16] = tested on: Ramos; assay: Induction of cell cycle arrest in human Ramos cells assessed as subG1 phase accumulation at 5 uM incubated for 24 hrs by PI staining based flow cytometry analysis (reference value: 2.53 %); type: functional
[17] = tested on: Ramos; assay: Induction of cell cycle arrest in human Ramos cells assessed as S phase accumulation at 5 uM incubated for 24 hrs by PI staining based flow cytometry analysis (reference value: 37.38 %); type: functional
[18] = molecular target: T1, Tyrosine-protein kinase BTK; assay: Inhibition of BTK in human TMD8 cells assessed as reduction in cell proliferation incubated for 24 hrs by CCK-8 assay; type: cell-based
[19] = molecular target: T1, Tyrosine-protein kinase BTK; assay: Inhibition of BTK in human Ramos cells assessed as reduction in BTK phosphorylation at Tyr223 residue at 10 uM incubated for 4 hrs by Western blot analysis relative to control; type: cell-based
[20] = molecular target: Proto-oncogene tyrosine-protein kinase Src (Homo sapiens, UniProt P12931); assay: Inhibition of SRC (unknown origin) by ADP-Glo assay
Sequence of Proto-oncogene tyrosine-protein kinase Src (P12931 2-536 limits assumed): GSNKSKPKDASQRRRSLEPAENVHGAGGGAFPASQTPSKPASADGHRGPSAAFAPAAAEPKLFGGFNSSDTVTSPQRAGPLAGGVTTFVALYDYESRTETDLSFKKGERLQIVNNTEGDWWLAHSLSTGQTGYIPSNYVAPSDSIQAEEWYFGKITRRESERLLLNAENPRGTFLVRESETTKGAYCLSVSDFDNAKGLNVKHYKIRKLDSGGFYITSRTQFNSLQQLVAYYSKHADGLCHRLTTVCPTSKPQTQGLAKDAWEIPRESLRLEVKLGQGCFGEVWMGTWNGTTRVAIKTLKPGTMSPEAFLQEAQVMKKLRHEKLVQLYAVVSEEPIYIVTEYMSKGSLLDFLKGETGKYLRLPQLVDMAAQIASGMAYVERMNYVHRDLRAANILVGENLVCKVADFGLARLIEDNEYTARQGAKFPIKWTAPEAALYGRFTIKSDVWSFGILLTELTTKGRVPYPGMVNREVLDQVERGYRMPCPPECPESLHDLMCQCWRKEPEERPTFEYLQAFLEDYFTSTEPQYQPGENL

[21] = tested on: Ramos; assay: Induction of cell cycle arrest in human Ramos cells assessed as G0/G1 phase accumulation at 5 uM incubated for 24 hrs by PI staining based flow cytometry analysis (reference value: 39.13 %); type: functional

T1 sequence (Q06187 whole entry): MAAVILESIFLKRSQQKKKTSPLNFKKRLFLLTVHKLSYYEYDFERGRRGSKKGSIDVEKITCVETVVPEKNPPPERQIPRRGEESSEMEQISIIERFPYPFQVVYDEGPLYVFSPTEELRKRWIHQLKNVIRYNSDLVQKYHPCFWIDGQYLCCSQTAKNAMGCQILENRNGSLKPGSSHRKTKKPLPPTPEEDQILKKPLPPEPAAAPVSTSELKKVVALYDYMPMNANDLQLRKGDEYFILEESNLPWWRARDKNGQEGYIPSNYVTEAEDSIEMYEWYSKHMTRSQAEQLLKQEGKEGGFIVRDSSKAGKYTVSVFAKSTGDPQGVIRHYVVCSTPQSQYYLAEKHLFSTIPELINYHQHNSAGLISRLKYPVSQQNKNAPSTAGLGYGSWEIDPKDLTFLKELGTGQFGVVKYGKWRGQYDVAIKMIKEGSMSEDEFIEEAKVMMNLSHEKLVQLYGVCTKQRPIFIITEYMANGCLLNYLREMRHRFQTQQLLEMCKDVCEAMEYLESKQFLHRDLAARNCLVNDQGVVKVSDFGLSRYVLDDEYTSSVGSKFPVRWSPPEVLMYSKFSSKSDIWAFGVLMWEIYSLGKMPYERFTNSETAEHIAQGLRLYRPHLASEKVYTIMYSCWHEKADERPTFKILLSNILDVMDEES

| SMILES | inhibition [1] [%] | IC50 [2] [µM] | IC50 [3] [µM] | further results |
| --- | --- | --- | --- | --- |
| C=CC(=O)Nc1cccc(Nc2nc(Cl)nc(Nc3ccc(OCCOC)cc3)n2)c1 | 10 |  |  |  |
| C=CC(=O)Nc1cccc(Nc2ncnc(Nc3ccc(OCCOC)cc3)n2)c1 | 57.1 | 181 | 105 |  |
| CC#CC(=O)Nc1cccc(Nc2ncnc(Nc3ccc(C(=O)N4CCCCC4)cc3)n2)c1 | 8.9 | 24.4 | 4.62 | IC50 [4]: > 1 µM |
| C=CC(=O)Nc1cccc(Nc2ncnc(Nc3ccc(-c4ccc(C)nc4)cc3)n2)c1 | 55.7 |  | 13.8 |  |
| C=CC(=O)Nc1cccc(Nc2nc(Cl)nc(Nc3ccc(Oc4ccccc4)cc3)n2)c1 | 7.3 | 12.3 | 15.7 |  |
| C=CC(=O)Nc1cccc(Nc2ncnc(Nc3ccc(C(=O)N4CCOCC4)cc3)n2)c1 | 77.5 | 13.2 | 22.2 |  |
| C=CC(=O)Nc1cccc(Nc2ncnc(Nc3ccc(-c4ccc(F)nc4)cc3)n2)c1 | 46.8 | 59.2 | 3.25 |  |
| C=CC(=O)Nc1cccc(Nc2ncnc(Nc3ccc(C(=O)Nc4ccccn4)cc3)n2)c1 | 56.3 |  | 15.6 |  |
| C=CC(=O)Nc1cccc(Nc2ncnc(Nc3ccc(-c4ccc(Cl)nc4)cc3)n2)c1 | 36.7 | 160 |  |  |
| C=CC(=O)Nc1cccc(Nc2ncnc(Nc3ccc(Oc4ccc(OC)cc4)cc3)n2)c1 | 23.4 | > 100 |  |  |
| C=CC(=O)Nc1cc(Nc2ncnc(Nc3ccc(C(=O)N4CCCCC4)cc3)n2)ccc1C | 39.1 | 48.5 | 30.6 | IC50 [4]: 0.146 µM |
| C=CC(=O)Nc1cccc(Nc2ncnc(Nc3ccc(-c4ccc(OC)nc4)cc3)n2)c1 | 32.7 |  |  |  |
| C=CC(=O)Nc1cccc(Nc2ncnc(Nc3ccc(C(=O)N4CCCCC4)cc3)n2)c1 | 91.1 | 6.14 | 5.14 | inhibition [5]: Active; Activity [6]: 2.4%; IC50 [7]: 0.594 µM; Activity [8]: 2.1%; inhibition [9]: Active; inhibition [10]: Active; Activity [11]: 25.14%; Activity [12]: 10.8%; IC50 [4]: 0.021 µM; viability at 5 µM ([13]; Homo sapiens, Ramos, read-out: Activity): 84.7%; IC50 [14]: 0.031 µM; IC50 [15]: 2.62 µM; Activity [16]: 10.43%; Activity [17]: 35.2%; inhibition [18]: Dose-dependent effect; inhibition [19]: 100%; IC50 [20]: 0.524 µM; Activity [21]: 29.23% |
| C=CC(=O)N1CCc2ccc(Nc3ncnc(Nc4ccc(C(=O)N5CCCCC5)cc4)n3)cc21 | 75.8 |  | 2.84 | IC50 [4]: 0.0543 µM |
| C/C=C/C(=O)Nc1cccc(Nc2ncnc(Nc3ccc(C(=O)N4CCCCC4)cc3)n2)c1 | 4.8 | 13.2 | 13.8 | IC50 [4]: > 1 µM |
| C=CC(=O)Nc1cccc(Nc2nc(N)nc(Nc3ccc(OCCOC)cc3)n2)c1 | 27.7 | 18.9 | 18.3 |  |
| C=CC(=O)N1CCC[C@@H](n2nc(-c3ccc(Oc4ccccc4)cc3)c3c(N)ncnc32)C1 [IBRUTINIB] |  | 1.35 | 12.6 | Activity [6]: 3.5%; Activity [8]: 1.9%; Activity [11]: 26.95%; Activity [12]: 12.5%; Activity [13]: 82.1%; Activity [16]: 15.11%; Activity [17]: 29.22%; Activity [21]: 28.72% |
| C=CC(=O)Nc1cccc(Nc2ncnc(Nc3ccc(C(=O)Nc4ccc(C)cn4)cc3)n2)c1 | 41.6 | > 100 | 125 |  |
| C=CC(=O)Nc1cccc(Nc2ncnc(Nc3ccc(-c4cccnc4)cc3)n2)c1 | 66.6 | > 100 | 12.4 |  |
| C=CC(=O)Nc1cccc(Nc2nc(N)nc(Nc3ccc(Oc4ccccc4)cc3)n2)c1 | 17.1 | 20 | 8.32 |  |
